Data: publication PMC9822021, “Biological Activity of Amidino-Substituted Imidazo [4,5-b]pyridines” (Molecules, 2022)

What was measured:
HSV-1 KOS = assay: Antiviral CPE reduction assay; type: cell-based, herpes simplex virus-1; details: Human alphaherpesvirus 1
in vitro [1] = details: dog
HCoV OC43 = assay: Antiviral CPE reduction assay; type: cell-based, human coronavirus OC43; details: Betacoronavirus 1, OC43, HEL 299 cells
[2] = test system: Influenza H1N1 (A/Ned/378/05); assay: Antiviral CPE reduction assay; type: cell-based; details: Influenza A virus, MDCK cells
in vitro [3] = details: human
E. coli Efflux Del = assay: microbe, parasite or virus in culture; type: cell-based; details: Escherichia coli, read-out: MIC E. coli Efflux Del
Procedure: (§1) Synthesized compounds were prepared as 10 mM DMSO solutions and tested in a final concentration range of 100–0.2 µM [34].
(§2) Broth microdilution testing was performed according to CLSI (Clinical Laboratory Standards Institute) guidelines. MIC (minimal inhibitory concentration) values were defined as the last tested concentration of the compound at which there was no visible growth of bacteria. Inoculums for each microorganism were prepared using the direct colony suspension method, where broth solutions that achieved turbidity equivalent to 0.5 McFarland standard were additionally diluted 100× with Ca-adjusted MH media (Becton Dickinson).

S. Pneumoniae ATCC 49619 = assay: Antibacterial activity in vitro, broth microdilution; type: cell-based; details: Streptococcus pneumoniae, ATCC49619; broth microdilution (CLSI), 16–24 h at 37 °C
Procedure: as §1, §2

E. coli ATCC 25922 = assay: as above; type: cell-based; details: Escherichia coli, ATCC25922; broth microdilution (CLSI), 16–24 h at 37 °C
Procedure: as §1, §2

S. aureus ATCC 29213 = assay: as above; type: cell-based; details: Staphylococcus aureus, ATCC29213; broth microdilution (CLSI), 16–24 h at 37 °C
Procedure: as §1, §2

Sindbis = assay: Antiviral CPE reduction assay; type: cell-based; details: Sindbis virus, Huh-7, Huh7 cells
[4] = test system: Influenza H3N2 (A/HK/7/87); assay: Antiviral CPE reduction assay; type: cell-based; details: Influenza A virus, MDCK cells
Zika mr766 = assay: Antiviral CPE reduction assay; type: cell-based; details: Zika virus, Huh-7, Huh7 cells
in vitro [5] = details: human; remark: listed apart in the source
HCoV NL63 = assay: Antiviral CPE reduction assay; type: cell-based; details: Human coronavirus NL63, Huh-7, Huh7 cells
[6] = test system: Influenza B (B/Ned/537/05); assay: Antiviral CPE reduction assay; type: cell-based; details: Influenza B virus, MDCK cells
HCoV 229E = assay: Antiviral CPE reduction assay; type: cell-based; details: Human coronavirus 229E, HEL 299 cells
YFV 17D = assay: microbe, parasite or virus in culture; type: cell-based; details: Yellow fever virus, Huh-7, read-out: EC50 YFV 17D Huh7
RSV A Long = assay: Antiviral CPE reduction assay; type: cell-based, respiratory syncytial virus A; details: human respiratory syncytial virus, HEL 299 cells
[7] = test system: NCI-H460 lung carcinoma cells; assay: In vitro antiproliferative activity, MTS proliferation assay; type: cell-based; details: Homo sapiens, 72 h
From the text: (§3) Human cancer cell lines used in this manuscript, namely Capan-1, HCT-116, NCI-H460, LN-229, HL-60, K-562, Z-138, SW620, PC3 and HeLa, were acquired from the American Type Culture Collection (ATCC, Manassas, VA, USA), while the DND-41 cell line was purchased from the Deutsche Sammlung von Mikroorganismen und Zellkulturen (DSMZ Leibniz-Institut, Germany). Culture media were purchased from Gibco Life Technologies, USA, and supplemented with 10% fetal bovine serum (HyClone, GE Healthcare Life Sciences, Chicago, IL, USA), except for the media for SW620, PC3 and HeLa cells, which were purchased from Sigma.
(§4) Adherent cell lines LN-229, HCT-116, NCI-H460 and Capan-1 cells were seeded at a density between 500 and 1500 cells per well in 384-well tissue culture plates (Greiner). […]. Cells were incubated for 72 h with compounds and were then analyzed using the CellTiter 96® AQueous One Solution Cell Proliferation Assay (MTS) reagent (Promega) according to the manufacturer’s instructions. Absorbance of the samples was measured at 490 nm using a SpectraMax Plus 384 (Molecular Devices), and OD values were used to calculate the 50% inhibitory concentration (IC50). Compounds were tested in two independent experiments. SW620, PC3 and HeLa cells were seeded in 96-well microtiter plates at 1 × 10^4 to 3 × 10^4 cells/mL, depending on the doubling times of the specific cell line. Test agents were then added in five 10-fold dilutions (10^−8 to 10^−4 M). Working dilutions were freshly prepared on the day of testing. After 72 h of incubation, the cell growth rate was evaluated using the MTT assay as described previously. Absorbance of the samples was measured at 570 nm, and OD values were used to calculate the 50% inhibitory concentration (IC50). Each test was performed in quadruplicate in at least two individual experiments.

[8] = test system: K-562 chronic myeloid leukemia cells; assay: as above; type: cell-based; details: Homo sapiens, K562, 72 h
From the text: as §3, §4

[9] = test system: HCT-116 colorectal carcinoma cells; assay: as above; type: cell-based; details: Homo sapiens, 72 h
From the text: as §3, §4

[10] = test system: LN-229 glioblastoma cells; assay: as above; type: cell-based; details: Homo sapiens, 72 h
From the text: as §3, §4

[11] = test system: Capan-1 pancreatic adenocarcinoma cells; assay: as above; type: cell-based; details: Homo sapiens, 72 h
Procedure: (§5) Culture media were purchased from Gibco Life Technologies, USA, and supplemented with 10% fetal bovine serum (HyClone, GE Healthcare Life Sciences, Chicago, IL, USA), except for the media for SW620, PC3 and HeLa cells, which were purchased from Sigma.
(§6) Cells were incubated for 72 h with compounds and were then analyzed using the CellTiter 96® AQueous One Solution Cell Proliferation Assay (MTS) reagent (Promega) according to the manufacturer’s instructions. […] Compounds were tested in two independent experiments. SW620, PC3 and HeLa cells were seeded in 96-well microtiter plates at 1 × 10^4 to 3 × 10^4 cells/mL, depending on the doubling times of the specific cell line. Test agents were then added in five 10-fold dilutions (10^−8 to 10^−4 M). Working dilutions were freshly prepared on the day of testing. After 72 h of incubation, the cell growth rate was evaluated using the MTT assay as described previously. […] Each test was performed in quadruplicate in at least two individual experiments.

[12] = test system: DND-41 acute lymphoblastic leukemia cells; assay: as above; type: cell-based; details: Homo sapiens, DND41, 72 h
Procedure: as §5, §6

[13] = test system: HL-60 acute myeloid leukemia cells; assay: as above; type: cell-based; details: Homo sapiens, 72 h
Procedure: as §5, §6

[14] = test system: PC3 prostate carcinoma cells; assay: In vitro antiproliferative activity, MTT assay; type: cell-based; details: Homo sapiens, 72 h
From the text: as §3, §4

[15] = test system: HeLa cervical carcinoma cells; assay: In vitro antiproliferative activity, MTT assay; type: cell-based; details: Homo sapiens, 72 h
From the text: as §3, §4

[16] = test system: SW620 colon carcinoma cells; assay: In vitro antiproliferative activity, MTT assay; type: cell-based; details: Homo sapiens, SW-620, 72 h
From the text: as §3, §4

[17] = test system: Z-138 non-Hodgkin lymphoma cells; assay: In vitro antiproliferative activity, MTS proliferation assay; type: cell-based, human; details: Homo sapiens, Z-138, 72 h
From the text: as §3, §4

SMILES | CC50 (in vitro [1]) | EC50 (HCoV OC43) | EC50 [2] | CC50 (in vitro [3]) | MIC (E. coli Efflux Del) | MIC (S. Pneumoniae ATCC 49619) | MIC (E. coli ATCC 25922) | MIC (S. aureus ATCC 29213) | EC50 [4] | EC50 (Zika mr766) | CC50 (in vitro [5]) | EC50 (HCoV NL63) | EC50 [6] | EC50 (HCoV 229E) | melting point | EC50 (YFV 17D) | also measured
O=c1[nH]c(=O)n([C@H]2C[C@H](O)[C@@H](CO)O2)cc1/C=C/Br [BVDU, brivudine, reference compound] | > 100 µM | – | – | – | – | – | – | – | – | – | – | – | – | – | – | – | EC50 (HSV-1 KOS): 0.05 µM
Brc1cnc2nc(-c3ccccc3)[nH]c2c1 [Compound 7, 6-Bromo-2-phenyl-1H-imidazo[4,5-b]pyridine] | > 100 µM | > 100 µM | > 100 µM | > 100 µM | > 64 µM | > 64 µM | > 64 µM | > 64 µM | > 100 µM | > 100 µM | > 100 µM | > 100 µM | > 100 µM | > 100 µM | > 300 °C | > 100 µM | EC50 (HSV-1 KOS): > 100 µM; EC50 (Sindbis): > 100 µM; EC50 (RSV A Long; HEL 299, CPE reduction): 21 ± 5.9 µM
Cn1c(-c2ccccc2)nc2cc(Br)cnc21 [Compound 18, 6-Bromo-3-methyl-2-phenyl-3H-imidazo[4,5-b]pyridine] | > 100 µM | – | – | > 100 µM | > 64 µM | > 64 µM | > 64 µM | > 64 µM | – | – | > 100 µM | – | – | – | 214 to 215 °C | – | IC50 [7]: > 100 µM; IC50 [8]: > 100 µM; IC50 [9]: > 100 µM; IC50 [10]: > 100 µM; IC50 [11]: > 100 µM; IC50 [12]: > 100 µM; IC50 [13]: > 100 µM; IC50 [14]: > 100 µM; IC50 [15]: 48 ± 0.2 µM; IC50 [16]: > 100 µM; IC50 [17]: > 100 µM
Cn1c(-c2ccc(C#N)cc2)nc2cc(Br)cnc21 [Compound 19, 4-(6-Bromo-3-methyl-3H-imidazo[4,5-b]pyridin-2-yl)benzonitrile] | > 100 µM | – | – | > 100 µM | > 64 µM | > 64 µM | > 64 µM | > 64 µM | – | – | > 100 µM | – | – | – | 234 to 235 °C | – | IC50 [7]: > 100 µM; IC50 [8]: > 100 µM; IC50 [9]: > 100 µM; IC50 [10]: > 100 µM; IC50 [11]: > 100 µM; IC50 [12]: > 100 µM; IC50 [13]: > 100 µM; IC50 [14]: 28.8 ± 15 µM; IC50 [15]: 26.1 ± 0.01 µM; IC50 [16]: 63.8 ± 7.4 µM; IC50 [17]: > 100 µM
CCC(CC)COC(=O)[C@H](C)N[P@](=O)(OC[C@H]1O[C@@](C#N)(c2ccc3c(N)ncnn23)[C@H](O)[C@@H]1O)Oc1ccccc1 [Remdesivir, remdesivir, reference compound] | – | 0.06 µM | – | > 10 µM | – | – | – | – | – | 0.7 µM | > 10 µM | 0.03 µM | – | 0.06 µM | – | 6.2 µM | EC50 (Sindbis): > 10 µM; EC50 (RSV A Long; CPE reduction): 0.03 ± 0.01 µM
NC(=O)c1ncn([C@@H]2O[C@H](CO)[C@@H](O)[C@H]2O)n1 [Ribavirin, ribavirin, reference compound] | 80.2 ± 18.6 µM | 170 µM | 10.5 ± 3.8 µM | – | – | – | – | – | 4 ± 2.7 µM | > 250 µM | – | > 250 µM | 2.8 ± 1.8 µM | 82.6 µM | – | > 250 µM | EC50 (RSV A Long; HEL 299, CPE reduction): 10.8 ± 2.1 µM
CC(=O)N[C@H]1[C@H]([C@H](O)[C@H](O)CO)OC(C(=O)O)=C[C@@H]1N=C(N)N [Zanamivir, zanamivir, reference compound] | > 100 µM | – | 0.13 ± 0.04 µM | – | – | – | – | – | 16.8 ± 6.8 µM | – | – | – | 0.05 ± 0.03 µM | – | – | – | –
